Source: patent US8367727B2, “Method of using abscisic acid to treat diseases and disorders” (priority 2006, dated 2013)

Tested on: MCP-1 promoter
Assay: MCP-1 promoter luciferase reporter in 3T3-L1 pre-adipocytes
Type: cell-based
Conditions: GW9662 30 μM
Method: 3T3-L1 cells (American Type Culture Collection, Manassas, Va.) were grown in 24-well plates in DMEM high glucose medium (Invitrogen, Carlsbad, Calif.) containing 10% fetal bovine serum (FBS) until 60-70% confluence. Before transfection, the medium was changed to 1% FBS. The cells cultured in 24-well plates were co-transfected with 0.8 μg plasmid DNA and 1 ng of pRL reporter control plasmid per well using F-1 transfection reagents (Targeting Systems, Santee, Calif.) according to the manufacturer's protocol. Transfection efficiencies were determined by cotransfecting the cells with a pcDNA™ 3.1/His/lacZ control vector at 24 h. The transfected cells were then treated with either a racemic ABA mixture (12.5 μM; Sigma) or rosiglitazone (1 μM; Cayman Chemicals, Ann Arbor, Mich.) for 24 hours. Designated wells were also treated with the PPAR γ antagonist GW9662 (30 μM; Cayman Chemicals). Transfected cells were harvested in reporter lysis reagent. Luciferase activity, normalized to pRL activity in the cell extracts was determined by using the dual luciferase reporter assay system (Promega, Madison, Wis.) in a TD-20/20 Single-Tube Luminometer (Turner Biosystems, Sunnyvale, Calif.). Relative luciferase activity (RLA) was calculated as a ratio of the chemiluminescence 10 seconds after the Luciferase Assay Reagent II (Promega) was added over the chemiluminescence 10 seconds after the Stop&Glo Reagent (Promega).
To further examine the effect of ABA on MCP-1 transactivation, 3T3-L1 preadipocytes were transfected with a MCP-1 promoter luciferase reporter construct and also cotransfected with a pCMX PPAR γ expression plasmid to increase endogenous PPAR γ activity. Cells were then treated with ABA (12.5 μM), rosiglitazone (1 μM), the PPAR γ antagonist GW9662 (30 μM), or a combination of agonist and inhibitor.

`O=C(Nc1ccccc1)c1cc([N+](=O)[O-])ccc1Cl` [GW9662, reference compound] was tested. Which “inhibition of the effects of ABA and rosiglitazone on MCP-1 promoter activity” value did it give?
The value was “inhibited”.
